From patent US20210214713A9, “METHODS FOR EXPERIMENTAL EVOLUTION OF NATURAL AND SYNTHETIC MICROBES” (priority 2017, published 2021) come the findings set out here.

Like-named read-outs stand apart in the source and are kept apart here.

Assay [1] concerns haploid and diploid yeast populations (ySK116, ySK743, ySK116x743). Format: cell-based, S. cerevisiae. Conditions: 30° C., OD 0.25-0.3, over the 20 h following drug addition. On the procedure:
Single colonies of fluorescently labelled haploid MATα (ySK116), fluorescently labelled haploid MATα (ySK743), and fluorescently labelled diploid control (ySK116x743) cells were grown overnight in YPD. These overnights were used to seed three eVOLVER vials at OD 0.05 (containing YPAD+50 ug/mL carbenicillin+25 ug/mL chloramphenicol). Cells were maintained at 30° C. in a density window of OD 0.25-0.3 for several generations in order to measure a baseline growth rate. At 16 h post-inoculation, cells from each haploid population were transferred by the vial-to-vial transfer device into the same fresh vial containing YPAD in order to create a new pre-drug to diploid population.
Next, cyclohexamide (CHX) was added to the haploid MATα vial, ketoconazole (KETO) was added to the MATα vial, and both drugs were added to the diploid control. Using the media selection portion of the vial-to-vial transfer device, 1 mL aliquots of media at 20× drug concentration were used to achieve a step-function transition to the final 1× drug concentration in each vial (0.2 ug/mL CHX for MATα, 6 ug/mL KETO for MATα, 0.2 ug/mL CHX+6 ug/mL KETO for the diploid control).

Assay [2] relates to diploid pool samples yBW003, yBW008, yBW009. Kind of assay: Growth rate assay to evaluate antifungal resistance of diploid pools in eVOLVER. It counts as cell-based, S. cerevisiae. Conditions: 6 ug/mL KETO only, seeded at OD 0.1, 30° C., 24 h without dilution.
Experimental: As an alternative metric to evaluate performance of the diploids formed during the experiment, a growth rate assay was performed in media containing each drug in isolation or combination. Three diploid pool samples were assayed: yBW003 from to, yBWOO8 from t1, and yBW009 from t2. 100 uL of each frozen stock created from post-selection cultures was thawed, added to 2 mL YPAD and then grown in culture tubes in a shaking incubator for 16 h at 30° C. These cultures were used to seed duplicate eVOLVER vials containing media with one of four drug conditions (no drug, 0.2 ug/mL CHX only, 6 ug/mL KETO only, both 0.2 ug/mL CHX+6 ug/mL KETO) at an initial density of OD 0.1. Each vial received an estimated 3.2×10^7 cells from the non-clonal population that comprised each sample pool. Cultures were maintained in eVOLVER at 30° C. for 24 h without dilution, while tracking density continuously. Growth rate was calculated for each culture over the density range OD 0.2-0.8 (FIG. 43).

As for `C[C@@H]1C[C@@H]([C@H](O)CC2CC(=O)NC(=O)C2)C(=O)[C@@H](C)C1` [CHX, cyclohexamide], the “Growth rate relative to its original (pre-drug) value” in assay [1] (0.2 ug/mL CHX, haploid vial (founder ySK116)) is reported as “roughly 10%”.
In the case of `CC(=O)N1CCN(c2ccc(OCC3COC(Cn4ccnc4)(c4ccc(Cl)cc4Cl)O3)cc2)CC1` (stereo not drawn) [KETO, ketoconazole], the “Growth rate relative to its original (pre-drug) value” in assay [1] (6 ug/mL KETO, haploid MATα vial (founder ySK743)) was “roughly 10%”. The “Effect on growth rate of diploid pools” value in assay [2] is “not observed to significantly affect the growth rate”.
